# Data from patent US8217029B2, “Oxazolidinone antibiotics” (Actelion Pharmaceuticals Ltd, priority 2007, dated 2012).
# System: S aureus A798
# Assay: Minimal inhibitory concentration (MIC), microdilution method in cation-adjusted Mueller-Hinton Broth following NCCLS guidelines
# Format: cell-based
# Conditions: pH of test medium 7.2-7.3
# Summary of the method: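 Broth microdilution per NCCLS M7-A4 in cation-adjusted Mueller-Hinton broth at pH 7.2-7.3; MIC reported in mg/l.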
MIC,MIC S aureus A798,Compound
0.25 µg/mL,,"COc1ccc2nccc(N3CC[C@H](NC(=O)[C@@H]4CN(c5ccc(C)c(F)c5)C(=O)O4)C3)c2n1 [Example 63, (S)-3-(3-Fluoro-4-methyl-phenyl)-2-oxo-oxazolidine-5-carboxylic acid [(S)-1-(6-methoxy-[1,5]naphthyridin-4-yl)-pyrrolidin-3-yl]-amide]"
≤ 0.031 µg/mL,,"COc1ccc2nccc(N3CCC(CNC[C@@H]4CN(c5ccc6c(c5)NC(=O)CS6)C(=O)O4)C3)c2n1 (mixture of isomers) [Example 80, 6-[(R)-5-({[(RS)-1-(6-Methoxy-[1,5]naphthyridin-4-yl)-pyrrolidin-3-ylmethyl]-amino}-methyl)-2-oxo-oxazolidin-3-yl]-4H-benzo[1,4]thiazin-3-one]"
0.5 µg/mL,,"COc1ccc(N2C[C@@H](CN[C@H]3CCN(c4c(F)cnc5ccc(OC)nc45)C3)OC2=O)cc1 [Example 169, (R)-5-{[(S)-1-(3-Fluoro-6-methoxy-[1,5]naphthyridin-4-yl)-pyrrolidin-3-ylamino]-methyl}-3-(4-methoxy-phenyl)-oxazolidin-2-one]"
≤ 0.031 µg/mL,,"O=C1CSc2ccc(N3C[C@@H](CNC4CCN(c5ccnc6ccc(F)cc56)CC4)OC3=O)cc2N1 [Example 179, 6-((R)-5-{[1-(6-Fluoro-quinolin-4-yl)-piperidin-4-ylamino]-methyl}-2-oxo-oxazolidin-3-yl)-4H-benzo[1,4]thiazin-3-one]"
≤ 0.031 µg/mL,,"COc1ccc2nccc(N3CC(N(C)C[C@@H]4CN(c5ccc6c(n5)NC(=O)CO6)C(=O)O4)C3)c2n1 [Example 150, 6-[(R)-5-({[1-(6-Methoxy-[1,5]naphthyridin-4-yl)-azetidin-3-yl]-methyl-amino}-methyl)-2-oxo-oxazolidin-3-yl]-4H-pyrido[3,2-b][1,4]oxazin-3-one]"
≤ 0.031 µg/mL,,"COc1ccc2ncc(F)c(N3CC[C@H](NC[C@H]4CN(c5ccc6c(c5)NC(=O)CS6)C(=O)O4)C3)c2n1 [Example 164, 6-((S)-5-{[(S)-1-(3-Fluoro-6-methoxy-[1,5]naphthyridin-4-yl)-pyrrolidin-3-ylamino]methyl}-2-oxo-oxazolidin-3-yl)-4H-benzo[1,4]thiazin-3-one]"
,0.063 mg/L,"COc1ccc2nccc(N3CCN(C[C@H]4CN(c5ccc(C)c(F)c5)C(=O)O4)C(=O)C3)c2n1 (single isomer, unassigned) [Example 100, [(S)-3-(3-Fluoro-4-methyl-phenyl)-2-oxo-oxazolidin-5-ylmethyl]-4-(6-methoxy-[1,5]naphthyridin-4-yl)-piperazin-2-one or [(R)-3-(3-Fluoro-4-methyl-phenyl)-2-oxo-oxazolidin-5-ylmethyl]-4-(6-methoxy-[1,5]naphthyridin-4-yl)-piperazin-2-one]"
≤ 0.031 µg/mL,,"COc1ccc2ncnc(N3CC(NC[C@@H]4CN(c5ccc6c(c5)NC(=O)CS6)C(=O)O4)C3)c2c1 [Example 55, 6-((R)-5-{[1-(6-Methoxy-quinazolin-4-yl)-azetidin-3-ylamino]-methyl}-2-oxo-oxazolidin-3-yl)-4H-benzo[1,4]thiazin-3-one]"
≤ 0.031 µg/mL,,"COc1ccc2ncc(F)c(N3CC(NC[C@@H]4CN(c5ccc(C)c(F)c5)C(=O)O4)C3)c2n1 [Example 46, (R)-5-{[1-(3-Fluoro-6-methoxy-[1,5]naphthyridin-4-yl)-azetidin-3-ylamino]-methyl}-3-(3-fluoro-4-methyl-phenyl)-oxazolidin-2-one]"
≤ 0.031 µg/mL,,"COc1ccc2nccc(N3CCN(C[C@@H]4CN(c5ccc(C)c(F)c5)C(=O)O4)CC3)c2n1 [Example 36, (R)-3-(3-Fluoro-4-methyl-phenyl)-5-[4-(6-methoxy-[1,5]naphthyridin-4-yl)-piperazin-1-ylmethyl]-oxazolidin-2-one]"
0.125 µg/mL,,"COc1ccc2nccc(N3CCC(CNC(=O)[C@@H]4CN(c5ccc6c(c5)OCCO6)C(=O)O4)C3)c2n1 (mixture of isomers) [Example 81, (S)-3-(2,3-Dihydro-benzo[1,4]dioxin-6-yl)-2-oxo-oxazolidine-5-carboxylic acid [(RS)-1-(6-methoxy-[1,5]naphthyridin-4-yl)-pyrrolidin-3-ylmethyl]-amide]"
0.25 µg/mL,,"COc1ccc(N2C[C@@H](CNC3CCN(c4ccnc5ccc(OC)nc45)CC3)OC2=O)cc1 [Example 183, (R)-5-{[1-(6-Methoxy-[1,5]naphthyridin-4-yl)-piperidin-4-ylamino]-methyl}-3-(4-methoxy-phenyl)-oxazolidin-2-one]"
0.063 µg/mL,,"COc1ccc2ncc(F)c(N3CC[C@H](NC[C@@H]4CN(c5ccc(OC(F)F)cc5)C(=O)O4)C3)c2n1 [Example 171, (R)-3-(4-Difluoromethoxy-phenyl)-5-{[(S)-1-(3-fluoro-6-methoxy-[1,5]naphthyridin-4-yl)-pyrrolidin-3-ylamino]-methyl}-oxazolidin-2-one]"
≤ 0.031 µg/mL,,"COc1ccc2nccc(N3CC[C@@H](NC[C@@H]4CN(c5ccc6c(c5)OCCO6)C(=O)O4)C3)c2n1 [Example 42, (R)-3-(2,3-Dihydro-benzo[1,4]dioxin-6-yl)-5-{[(R)-1-(6-methoxy-[1,5]naphthyridin-4-yl)-pyrrolidin-3-ylamino]-methyl}-oxazolidin-2-one]"
≤ 0.031 µg/mL,,"COc1ccc2nccc(N3CC(NC[C@@H]4CN(c5ccc(C)c(F)c5)C(=O)O4)C3)c2n1 [Example 50, (R)-3-(3-Fluoro-4-methyl-phenyl)-5-{[1-(6-methoxy-[1,5]naphthyridin-4-yl)-azetidin-3-ylamino]-methyl}-oxazolidin-2-one]"
≤ 0.031 µg/mL,,"COc1ccc2nccc(N3CCN(C[C@@H]4CN(c5ccc(Br)c(F)c5)C(=O)O4)CC3)c2n1 [Example 13, (R)-3-(4-Bromo-3-fluoro-phenyl)-5-[4-(6-methoxy-[1,5]naphthyridin-4-yl)-piperazin-1-ylmethyl]-oxazolidin-2-one]"
≤ 0.031 µg/mL,,"COc1ccc2nccc(N3CC[C@H](NC[C@@H]4CN(c5ccc6c(c5)OCCO6)C(=O)O4)C3)c2n1 [Example 41, (R)-3-(2,3-Dihydro-benzo[1,4]dioxin-6-yl)-5-{[(S)-1-(6-methoxy-[1,5]naphthyridin-4-yl)-pyrrolidin-3-ylamino]-methyl}-oxazolidin-2-one]"
≤ 0.031 µg/mL,,"COc1ccc2nccc(N3CC(N(C)C[C@@H]4CN(c5ccc(OC(F)F)cc5)C(=O)O4)C3)c2n1 [Example 134, (R)-3-(4-Difluoromethoxy-phenyl)-5-({[1-(6-methoxy-[1,5]naphthyridin-4-yl)-azetidin-3-yl]-methyl-amino}-methyl)-oxazolidin-2-one]"
0.25 µg/mL,,"COc1ccc2nccc(N3CCC(C(=O)NC[C@@H]4CN(c5ccc6c(c5)OCCO6)C(=O)O4)C3)c2n1 (mixture of isomers) [Example 85, (RS)-1-(6-Methoxy-[1,5]naphthyridin-4-yl)-pyrrolidine-3-carboxylic acid [(R)-3-(2,3-dihydro-benzo[1,4]dioxin-6-yl)-2-oxo-oxazolidin-5-ylmethyl]-amide]"
2 µg/mL,,"COc1ccc2nccc(N3CCN(C[C@@H]4CN(c5ccc(N6CCCC6)cc5)C(=O)O4)CC3)c2n1 [Example 23, (R)-5-[4-(6-Methoxy-[1,5]naphthyridin-4-yl)-piperazin-1-ylmethyl]-3-(4-pyrrolidin-1-yl-phenyl)-oxazolidin-2-one]"
≤ 0.031 µg/mL,,"COc1ccc2nccc(N3CC(N(C)C[C@@H]4CN(c5ccc(Br)c(C)c5)C(=O)O4)C3)c2n1 [Example 143, (R)-3-(4-Bromo-3-methyl-phenyl)-5-({[1-(6-methoxy-[1,5]naphthyridin-4-yl)-azetidin-3-yl]-methyl-amino}-methyl)-oxazolidin-2-one]"
,<=0.031 mg/l,"COc1ccc2ncc(F)c(N3CC[C@H](NC[C@@H]4CN(c5ccc6c(c5)OCCO6)C(=O)O4)C3)c2n1 [Example 66, (R)-3-(2,3-Dihydro-benzo[1,4]dioxin-6-yl)-5-{[(5)-1-(3-fluoro-6-methoxy-[1,5]naphthyridin-4-yl)-pyrrolidin-3-ylamino]-methyl}-oxazolidin-2-one]"
≤ 0.031 µg/mL,,"COc1ccc2nccc(N3CC(NC[C@@H]4CN(c5ccc6c(c5)NC(=O)CO6)C(=O)O4)C3)c2c1 [Example 156, 6-((R)-5-{[1-(6-Methoxy-quinolin-4-yl)-azetidin-3-ylamino]-methyl}-2-oxo-oxazolidin-3-yl)-4H-benzo[1,4]oxazin-3-one]"
0.063 µg/mL,,"COc1ccc2nccc(N3C[C@@H]4C[C@H]3CN4C[C@@H]3CN(c4ccc5c(c4)NC(=O)CS5)C(=O)O3)c2n1 [Example 152, 6-{(R)-5-[(1S,4S)-5-(6-Methoxy-[1,5]naphthyridin-4-yl)-2,5-diaza-bicyclo[2.2.1]hept-2-ylmethyl]-2-oxo-oxazolidin-3-yl}-4H-benzo[1,4]thiazin-3-one]"
≤ 0.031 µg/mL,,"COc1ccc2ncc(F)c(N3CCN(C[C@@H]4CN(c5ccc6c(c5)NC(=O)CS6)C(=O)O4)CC3)c2n1 [Example 98, 6-{(R)-5-[4-(3-Fluoro-6-methoxy-[1,5]naphthyridin-4-yl)-piperazin-1-ylmethyl]-2-oxo-oxazolidin-3-yl}-4H-benzo[1,4]thiazin-3-one]"
≤ 0.031 µg/mL,,"COc1ccc2nccc(N3CCN(C[C@@H]4CN(c5ccc(Br)c(C)c5)C(=O)O4)CC3)c2n1 [Example 31, (R)-3-(4-Bromo-3-methyl-phenyl)-5-[4-(6-methoxy-[1,5]naphthyridin-4-yl)-piperazin-1-ylmethyl]-oxazolidin-2-one]"
≤ 0.031 µg/mL,,"CCCc1ccc(N2C[C@@H](CN(C)C3CN(c4ccnc5ccc(OC)nc45)C3)OC2=O)cc1 [Example 139, (R)-5-({[1-(6-Methoxy-[1,5]naphthyridin-4-yl)-azetidin-3-yl]-methyl-amino}-methyl)-3-(4-propyl-phenyl)-oxazolidin-2-one]"
≤ 0.031 µg/mL,,"COc1ccc2nccc(N3CCC(NC[C@@H]4CN(c5ccc(C)c(F)c5)C(=O)O4)CC3)c2n1 [Example 121, (R)-3-(3-Fluoro-4-methyl-phenyl)-5-{[1-(6-methoxy-[1,5]naphthyridin-4-yl)-piperidin-4-ylamino]-methyl}-oxazolidin-2-one]"
≤ 0.031 µg/mL,,"COc1ccc2ccc(F)c(N3CC(NC[C@@H]4CN(c5ccc6c(c5)NC(=O)CS6)C(=O)O4)C3)c2n1 [Example 159, 6-((R)-5-{[1-(7-Fluoro-2-methoxy-quinolin-8-yl)-azetidin-3-ylamino]-methyl}-2-oxo-oxazolidin-3-yl)-4H-benzo[1,4]thiazin-3-one]"
